Series [1] deals with CAR-positive CD3-positive T cells co-cultured with Nalm-6 cells. As to the kind of experiment: CART proliferation in co-culture with Nalm-6 cells with RAD001. Type of series: cell-based. Particulars: low doses of RAD001, 4 days of co-culture with Nalm-6. The protocol: CARTs were co-cultured with Nalm-6 cells in the presence of different concentrations of RAD001. The number of CAR-positive CD3-positive T cells (black) and total T cells (gray) was assessed after 4 days of co-culture.

The test system of series [2] is CD4+ and CD8+ CAR T cells. As to the kind of experiment: In vivo proliferation of humanized CD19 CART cells with and without RAD001. The following applies: 0.003 mg/kg daily with huCTL019. The method, then: FIG. 49A and FIG. 49B show in vivo proliferation of humanized CD19 CART cells with and without RAD001 dosing. […] Circles denote PBS; squares denote huCTL019; triangles denote huCTL019 with 3 mg/kg RAD001; inverted triangles denote huCTL019 with 0.3 mg/kg RAD001; diamonds denote huCTL019 with 0.03 mg/kg RAD001; and circles denote huCTL019 with 0.003 mg/kg RAD001.

Series [3] has as its system huCART19 cells. As to the kind of experiment: CART proliferation in 4 day co-culture with Nalm-6 in presence of RAD001. Type of series: cell-based, human. The protocol: To evaluate the functionality of CARTs, the T cells are thawed and counted, and viability is assessed by Cellometer. The number of CAR-positive cells in each culture is normalized using non-transduced T cells (UTD). The impact of RAD001 on CARTs was tested in titrations with RAD001, starting at 50 nM. The target cell line used in all co-culture experiments is Nalm-6, a human pre-B cell acute lymphoblastic leukemia (ALL) cell line expressing CD19 and transduced to express luciferase.
For measuring the proliferation of CARTs, T cells are cultured with target cells at a ratio of 1:1. The assay is run for 4 days, when cells are stained for CD3, CD4, CD8 and CAR expression. The number of T cells is assessed by flow cytometry using counting beads as reference.

Series [4] is described as follows: RAD001 PK analysis in NSG mice with NALM6-luc tumors. The following applies: for concentration at 24 h: NSG, mouse. In kind it is in vivo. The method, then: (§1) A concentrated micro-emulsion of 50 mg equal to 1 mg RAD001 was formulated and then resuspended in D5W (dextrose 5% in water) at the time of dosing. Mice were orally dosed daily (via oral gavage) with 200 μl of the desired doses of RAD001.
Mice were dosed daily with RAD001 starting 7 days post tumor implantation. Dosing groups were as follows: 0.3 mg/kg, 1 mg/kg, 3 mg/kg, and 10 mg/kg. Mice were bled on days 0 and 14 following the first and last dose of RAD001, at the following time points for PK analysis: 15 minutes, 30 minutes, 1 hour, 2 hours, 4 hours, 8 hours, 12 hours, and 24 hours.

For series [5], the system named is NALM6-luc tumors. As to the kind of experiment: NALM6-luc tumor growth under daily oral RAD001. Particulars: daily oral dosing of RAD001 alone. Type of series: in vivo, NSG mice. The protocol:
NALM6-luc cells were grown and expanded in vitro in RPMI supplemented with 10% heat inactivated fetal bovine serum. The cells were then transferred to a 15 ml conical tube and washed twice with cold sterile PBS. NALM6-luc cells were then counted and resuspended at a concentration of 10×10^6 cells per milliliter of PBS. The cells were placed on ice and immediately (within one hour) implanted in the mice. NALM6-luc cells were injected intravenously via the tail vein in a 100 μl volume, for a total of 1×10^6 cells per mouse.
as §1

Series [6] deals with huCAR19 CAR T cells. As to the kind of experiment: CAR T cell expansion in vivo with RAD001 (FACS). Set-up: species or system NSG mice. Particulars: lowest doses of RAD001, daily oral. The method, then:
Mice were administered 5×10^6 CAR T cells 7 days after tumor implantation. Cells were partially thawed in a 37 degree Celsius water bath and then completely thawed by the addition of 1 ml of cold sterile PBS to the tube containing the cells. The thawed cells were transferred to a 15 ml falcon tube and adjusted to a final volume of 10 mls with PBS. The cells were washed twice at 1000 rpm for 10 minutes each time and then counted on a hemocytometer. T cells were then resuspended at a concentration of 50×10^6 CAR T cells per ml of cold PBS and kept on ice until the mice were dosed. The mice were injected intravenously via the tail vein with 100 μl of the CAR T cells for a dose of 5×10^6 CAR T cells per mouse. Eight mice per group were treated either with 100 μl of PBS alone (PBS), or humanized CD19 CAR T cells.
as §1
Based on these doses, huCAR19 CAR T cells were dosed with and without RAD001 to determine the proliferative ability of these cells. The highest dose used was 3 mg/kg based on the levels of RAD001 in the blood 24 hours after dosing. […] Mice were monitored via FACS for T cell expansion.

“Also recorded” adds a separate entry of the source. Like-named read-outs stand apart in the source and are kept apart here.

Experimental findings from patent US11981731B2, “Targeting cytotoxic cells with chimeric receptors for adoptive immunotherapy” (Novartis AG, priority 2014, dated 2024) are described below.

For the compound `CO[C@H]1C[C@@H]2CC[C@@H](C)[C@@](O)(O2)C(=O)C(=O)N2CCCC[C@H]2C(=O)O[C@H]([C@H](C)C[C@@H]2CC[C@@H](OCCO)[C@H](OC)C2)CC(=O)[C@H](C)/C=C(\C)[C@@H](O)[C@@H](OC)C(=O)[C@H](C)C[C@H](C)/C=C/C=C/C=C/1C` [RAD001, everolimus], the “proliferation of CAR-expressing, transduced T cells” value in series [1] is given as “enhanced”. In addition, in series [2], the “in vivo CAR T cell proliferation” value is given as “enhancement in CAR T cell proliferation”. In series [3] (0.0032 and 0.016 nM RAD001), the “proliferation of huCART19 cells” value is recorded as “higher than observed without the addition of RAD001”. Moreover, the “expansion of huCART19 cells” value in series [3] (less than 0.016 nM of RAD001) is “expanded”. Also, the concentration at 24 h in series [4] (blood, oral, 0.3 mg/kg, 24 hours after the final dose, read-out: concentration of RAD001) is over 10 nM; in series [4] (whole blood, 24 hours after dosing, 0.3 mg/kg oral, day 0 and day 14, read-out: RAD001 concentrations in the blood), over 10 nM. For the same compound, the “stability in the blood of tumor bearing mice” value in series [4] (daily oral dosing) is “fairly stable”. Moreover, the “impact on the growth of NALM6-luc tumors” value in series [5] is reported as “did not have an impact”. Further, the “proliferation of the CAR T cells in vivo” value in series [6] is “enhanced proliferation; also recorded: more evident and prolonged with the CD4^+ CAR T cells”.
